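Values below derive from 48-hour exposures of cells grown in 96-well plates, with endpoints linearly interpolated between the two concentrations bracketing the appropriate inhibition level. GI50 marks 50% less growth.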 Active and inactive are the calls of the source. Rule as the data show it: active = GI50 up to about 1.1 µM and inactive = higher.
Key:
Experiment in all cases: NCI tumour cell line growth inhibition, 48 h
786-0 = test system: 786-0
ACHN = test system: ACHN
HCC 2998 = test system: HCC 2998
HOP-62 = test system: HOP-62
HOP-92 = test system: HOP-92
IGROV-1 = test system: IGROV-1
MDA-N = test system: MDA-N
MOLT-4 = test system: MOLT-4
RPMI-8226 = test system: RPMI-8226
RXF 393 = test system: RXF 393
SF-268 = test system: SF-268
SF-539 = test system: SF-539
SK-MEL-28 = test system: SK-MEL-28
SN12C = test system: SN12C
SR = test system: SR
SW-620 = test system: SW-620
TK-10 = test system: TK-10
UACC-257 = test system: UACC-257
UACC-62 = test system: UACC-62
CAKI-1 = test system: CAKI-1

Measured: GI50

Cc1nc2ccccc2c(=O)n1NC(=O)c1ccc([N+](=O)[O-])cc1
inactive: 786-0 > 100 µM | ACHN > 100 µM | HCC 2998 > 100 µM | HOP-62 > 100 µM | HOP-92 > 100 µM | IGROV-1 > 100 µM | MDA-N > 100 µM | MOLT-4 > 100 µM | RPMI-8226 > 100 µM | RXF 393 > 100 µM | SF-268 > 100 µM | SF-539 > 100 µM | SK-MEL-28 > 100 µM | SN12C > 100 µM | SR > 100 µM | SW-620 > 100 µM | TK-10 > 100 µM | UACC-257 > 100 µM | UACC-62 > 100 µM

CCOc1cccc(/C=N/N=C2\C(=O)Nc3c(Cl)cc(Cl)cc32)c1O
inactive: 786-0 74.6 µM | ACHN > 100 µM | CAKI-1 > 100 µM | HCC 2998 85.7 µM | HOP-62 30.4 µM | HOP-92 75.7 µM | IGROV-1 74.8 µM | MDA-N 45.7 µM | MOLT-4 28.4 µM | RXF 393 > 100 µM | SF-539 53.6 µM | SK-MEL-28 71.8 µM | SN12C 73.6 µM | SR 29.4 µM | SW-620 75.9 µM | TK-10 > 100 µM | UACC-257 > 100 µM | UACC-62 58.2 µM

O=C(O)CSc1cc(-c2ccccc2)nc2ccccc12
inactive: 786-0 47.1 µM | ACHN 71.1 µM | CAKI-1 67.5 µM | HOP-62 48.2 µM | HOP-92 72.3 µM | IGROV-1 57.7 µM | MDA-N 35.6 µM | MOLT-4 46.3 µM | RXF 393 27.4 µM | SF-268 35 µM | SK-MEL-28 85.1 µM | SN12C 36.6 µM | SR 27.9 µM | SW-620 44.3 µM | TK-10 64.1 µM | UACC-257 71.9 µM | UACC-62 48.3 µM

COc1cc2ccc1OCc1cccc(n1)COc1ccc(cc1OC)/C=N\c1ccc(cc1)-c1ccc(cc1)/N=C\2
inactive: 786-0 > 100 µM | ACHN > 100 µM | CAKI-1 > 100 µM | HCC 2998 > 100 µM | HOP-62 78 µM | HOP-92 > 100 µM | IGROV-1 > 100 µM | MDA-N > 100 µM | MOLT-4 > 100 µM | RXF 393 71.6 µM | SF-268 > 100 µM | SF-539 > 100 µM | SN12C > 100 µM | SR > 100 µM | SW-620 > 100 µM | TK-10 > 100 µM | UACC-257 > 100 µM | UACC-62 > 100 µM

COC(=O)c1cc2c(c3c1CC(Cc1ccccc1)C3=O)CCC2 (stereo unspecified)
inactive: 786-0 71.8 µM | ACHN 84.3 µM | HCC 2998 36.7 µM | HOP-62 99.3 µM | HOP-92 25.1 µM | IGROV-1 73.3 µM | MDA-N > 100 µM | MOLT-4 53.6 µM | RPMI-8226 59.8 µM | RXF 393 90.2 µM | SF-268 91.6 µM | SF-539 > 100 µM | SK-MEL-28 > 100 µM | SN12C 78.2 µM | SR > 100 µM | SW-620 > 100 µM | TK-10 > 100 µM | UACC-257 > 100 µM | UACC-62 32.7 µM

O=c1c2sc(=S)n(-c3ccc(F)cc3)c2ncn1/N=C/c1ccc(F)cc1F
inactive: 786-0 17.2 µM | ACHN 27.5 µM | CAKI-1 14.4 µM | HCC 2998 31 µM | HOP-62 16.6 µM | HOP-92 11 µM | IGROV-1 24.6 µM | MDA-N > 100 µM | RPMI-8226 52.2 µM | RXF 393 15.8 µM | SF-268 18.7 µM | SK-MEL-28 29.8 µM | SN12C 31.3 µM | SR 40.1 µM | SW-620 > 100 µM | TK-10 18.1 µM | UACC-257 34.9 µM | UACC-62 27.7 µM

CN1C(=O)c2ccccc2NC(=O)C12O[C@@H]2c1cccc(O)c1 (stereo partly specified)
inactive: 786-0 > 100 µM | ACHN > 100 µM | CAKI-1 > 100 µM | HCC 2998 > 100 µM | HOP-62 > 100 µM | HOP-92 > 100 µM | IGROV-1 > 100 µM | MDA-N > 100 µM | MOLT-4 > 100 µM | RPMI-8226 > 100 µM | SF-268 > 100 µM | SF-539 > 100 µM | SK-MEL-28 > 100 µM | SN12C > 100 µM | SR > 100 µM | SW-620 > 100 µM | TK-10 > 100 µM | UACC-257 > 100 µM | UACC-62 > 100 µM

CN(C)c1ccc(/C=C/c2nc3ccccc3s2)cc1
inactive: 786-0 > 100 µM | ACHN > 100 µM | HCC 2998 > 100 µM | HOP-62 > 100 µM | HOP-92 > 100 µM | IGROV-1 > 100 µM | MDA-N > 100 µM | MOLT-4 > 100 µM | RPMI-8226 > 100 µM | RXF 393 > 100 µM | SF-268 > 100 µM | SF-539 > 100 µM | SK-MEL-28 > 100 µM | SN12C > 100 µM | SR > 100 µM | SW-620 > 100 µM | TK-10 > 100 µM | UACC-257 > 100 µM

— ChEMBL document CHEMBL1201862, “PubChem BioAssay data set” (2004)
